pKi: −log10 of the molar value.
Each compound was assayed against T1, human mGlu 5a receptor (Homo sapiens, UniProt P41594) (assay: [3H]MPEP competition binding on membranes of EBNA cells transfected with human mGlu 5a receptor). Details: competition with [3H]MPEP (2 nM), 1 h at 4° C., membranes of transiently transfected EBNA cells; Ki=IC50/[1+L/Kd].
T1 construct: expressed in transfected cells; host or cells: EBNA cells (transient transfection); cell membrane homogenates
Experimental: For binding experiments, cDNA encoding human mGlu 5a receptor was transiently transfected into EBNA cells using a procedure described by Schlaeger and Christensen [Cytotechnology 15:1–13 (1998)]. Cell membrane homogenates were stored at −80° C. until the day of assay where upon they were thawed and resuspended and polytronised in 15 mM Tris-HCl, 120 mM NaCl, 100 mM KCl, 25 mM CaCl2, 25 mM MgCl2 binding buffer at pH 7.4 to a final assay concentration of 20 μg protein/well.
Saturation isotherms were determined by addition of twelve [^3H]MPEP concentrations (0.04–100 nM) to these membranes (in a total volume of 200 μl) for 1 h at 4° C. Competition experiments were performed with a fixed concentration of [^3H]MPEP (2 nM) and IC50 values of test compounds evaluated using 11 concentrations (0.3–10,000 nM). Incubations were performed for 1 h at 4° C.
At the end of the incubation, membranes were filtered onto unifilter (96-well white microplate with bonded GF/C filter preincubated 1 h in 0.1% PEI in wash buffer, Packard BioScience, Meriden, Conn.) with a Filtermate 96 harvester (Packard BioScience) and washed 3 times with cold 50 mM Tris-HCl, pH 7.4 buffer. Nonspecific binding was measured in the presence of 10 μM MPEP. The radioactivity on the filter was counted (3 min) on a Packard Top-count microplate scintillation counter with quenching correction after addition of 45 μl of microscint 40 (Can berra Packard S. A., Zürich, Switzerland) and shaking for 20 min. For functional assays, [Ca^2+]i measurements were performed as described previously by Porter et al. [Br. J. Pharmacol. 128:13–20 (1999)] on recombinant human mGlu 5a receptors in HEK-293 cells. The cells were dye loaded using Fluo 4-AM (obtainable by FLUKA, 0.2 μM final concentration). [Ca^2+]i measurements were performed using a fluorometric imaging plate reader (FLIPR, Molecular Devices Corporation, La Jolla, Calif., USA). Antagonist evaluation was performed following a 5 min preincubation with the test compounds followed by the addition of a submaximal addition of agonist.
The inhibition (antagonists) curves were fitted with a four parameter logistic equation giving IC50, and Hill coefficient using an iterative non linear curve fitting software (Xcel fit).
For binding experiments the Ki values of the compounds tested are given. The Ki value is defined by the following formula: Ki=IC50/[1+L/Kd] in which the IC50 values are those concentrations of the compounds tested which cause 50% inhibition of the competing radioligand ([^3H]MPEP). L is the concentration of radioligand used in the binding experiment and the Kd value of the radioligand is empirically determined for each batch of membranes prepared.

T1 sequence (P41594 21-1180 isoform P41594-2 limits assumed): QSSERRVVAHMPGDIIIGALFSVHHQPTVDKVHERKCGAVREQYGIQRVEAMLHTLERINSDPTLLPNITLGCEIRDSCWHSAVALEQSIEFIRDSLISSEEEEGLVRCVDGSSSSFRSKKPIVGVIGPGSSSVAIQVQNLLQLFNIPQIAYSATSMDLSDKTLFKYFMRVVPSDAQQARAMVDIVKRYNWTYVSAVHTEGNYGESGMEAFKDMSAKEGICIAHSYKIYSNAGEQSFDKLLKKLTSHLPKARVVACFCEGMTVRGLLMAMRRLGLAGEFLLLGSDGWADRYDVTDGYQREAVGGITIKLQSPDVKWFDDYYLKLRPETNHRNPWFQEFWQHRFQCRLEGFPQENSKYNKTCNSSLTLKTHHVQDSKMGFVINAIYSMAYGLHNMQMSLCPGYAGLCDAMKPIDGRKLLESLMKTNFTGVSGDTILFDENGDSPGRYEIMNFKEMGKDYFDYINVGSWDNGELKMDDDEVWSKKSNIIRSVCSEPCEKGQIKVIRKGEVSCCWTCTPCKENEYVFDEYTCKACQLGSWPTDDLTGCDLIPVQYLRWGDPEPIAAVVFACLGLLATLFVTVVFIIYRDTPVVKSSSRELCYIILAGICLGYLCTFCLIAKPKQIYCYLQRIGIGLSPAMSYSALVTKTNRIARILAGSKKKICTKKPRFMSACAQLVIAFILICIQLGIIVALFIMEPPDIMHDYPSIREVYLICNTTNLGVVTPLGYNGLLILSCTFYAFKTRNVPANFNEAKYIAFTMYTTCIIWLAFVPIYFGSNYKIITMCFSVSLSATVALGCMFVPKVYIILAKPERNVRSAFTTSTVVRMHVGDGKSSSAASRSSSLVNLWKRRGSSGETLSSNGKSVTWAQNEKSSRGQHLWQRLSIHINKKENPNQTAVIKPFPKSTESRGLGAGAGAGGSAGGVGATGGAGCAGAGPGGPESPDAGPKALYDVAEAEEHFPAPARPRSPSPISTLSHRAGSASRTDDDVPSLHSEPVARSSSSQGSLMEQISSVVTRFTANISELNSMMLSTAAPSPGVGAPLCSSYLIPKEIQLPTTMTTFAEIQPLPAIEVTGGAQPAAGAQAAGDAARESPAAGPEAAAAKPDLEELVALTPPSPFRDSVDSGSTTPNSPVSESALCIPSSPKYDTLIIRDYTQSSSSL

pKi | Structure (SMILES)
7.20 | Cc1nc(C#Cc2cccc(Cl)c2)cn1-c1ncccn1 [Example 1, 2-[4-(3-Chloro-phenylethynyl)-2-methyl-imidazol-1-yl]-pyrimidine]
7.55 | Cc1nc(C#Cc2cccc(Cl)c2)cn1-c1nccc(C(F)(F)F)n1 [Example 2, 2-[4-(3-Chloro-phenylethynyl)-2-methyl-imidazol-1-yl]-4-trifluoromethyl-pyrimidine]
7.51 | Cc1cccc(-n2cc(C#Cc3cccc(C#N)c3)nc2C)n1 [Example 3, 3-[2-Methyl-1-(6-methyl-pyridin-2-yl)-1H-imidazol-4-ylethynyl]-benzonitrile]
6.80 | Cc1cc(-n2cc(C#Cc3cccc(Cl)c3)nc2C)cnn1 [Example 8, 5-[4-(3-Chloro-phenylethynyl)-2-methyl-imidazol-1-yl]-3-methyl-pyridazine]
7.96 | Cc1nc(C#Cc2cccc(Cl)c2)cn1-c1ccoc1 [Example 9, 4-(3-Chloro-phenylethynyl)-1-furan-3-yl-2-methyl-1H-imidazole]
7.96 | COc1ccnc(-n2cc(C#Cc3cccc(C#N)c3)nc2C)n1 [Example 20, 3-[1-(4-Methoxy-pyrimidin-2-yl)-2-methyl-1H-imidazol-4-ylethynyl]-benzonitrile]
7.22 | Cc1nc(C#Cc2cccc(C#N)c2)cn1-c1cnccn1 [Example 22, 3-(2-Methyl-1-pyrazin-2-yl-1H-imidazol-4-ylethynyl)-benzonitrile]
7.49 | Cc1nc(C#Cc2cccc(Cl)c2)cn1-c1ccc(Cl)nn1 [Example 25, 3-Chloro-6-[4-(3-chloro-phenylethynyl)-2-methyl-imidazol-1-yl]-pyridazine]
7.03 | COc1ccc(-n2cc(C#Cc3cccc(Cl)c3)nc2C)nn1 [Example 26, 3-[4-(3-Chloro-phenylethynyl)-2-methyl-imidazol-1-yl]-6-methoxy-pyridazine]
6.89 | Cc1nc(C#Cc2cccc(Cl)c2)cn1-c1ccc(N(C)C)nn1 [Example 27, {6-[4-(3-Chloro-phenylethynyl)-2-methyl-imidazol-1-yl]-pyridazin-3-yl}-dimethyl-amine]
7.06 | Cc1ccc(-n2cc(C#Cc3cccc(C(F)(F)F)c3)nc2C)nc1 [Example 31, 5-Methyl-2-[2-methyl-4-(3-trifluoromethyl-phenylethynyl)-imidazol-1-yl]-pyridine]
7.18 | Cc1nc(C#Cc2cccc(C(F)(F)F)c2)cn1-c1ccc(Cl)nc1 [Example 33, 2-Chloro-5-[2-methyl-4-(3-trifluoromethyl-phenylethynyl)-imidazol-1-yl]-pyridine]
7.41 | Cc1nc(C#Cc2cccc(C#N)c2)cn1-c1cncc(F)c1 [Example 35, 3-[1-(5-Fluoro-pyridin-3-yl)-2-methyl-1H-imidazol-4-ylethynyl]-benzonitrile]
7.00 | Cc1nc(C#Cc2cccc(C#N)c2)cn1-c1cncc(N(C)C)c1 [Example 38, 3-[1-(5-Dimethylamino-pyridin-3-yl)-2-methyl-1H-imidazol-4-ylethynyl]-benzonitrile]
8.05 | Cc1nc(C#Cc2cccc(Cl)c2)cn1-c1cccc(N2CCSCC2)n1 [Example 39, 4-{6-[4-(3-Chloro-phenylethynyl)-2-methyl-imidazol-1-yl]-pyridin-2-yl}-thiomorpholine]
7.17 | Cc1nc(C#Cc2cccc(Cl)c2)cn1-c1cccc(N2CCS(=O)(=O)CC2)n1 [Example 40, 4-{6-[4-(3-Chloro-phenylethynyl)-2-methyl-imidazol-1-yl]-pyridin-2-yl}-thiomorpholine-1,1-dioxide]

From patent US7241760B2, “Heteroaryl-substituted imidazole derivatives” (Hoffmann-La Roche Inc., priority 2003, dated 2007)
